Read-outs that look alike come from different tables or passages of the source.

The results in this text go back to patent US9586914B2, “Modulators of C3a receptors” (THE UNIVERSITY OF QUEENSLAND, priority 2011, dated 2017).

In one assay the target is T1, C3a receptor (C3aR) (Homo sapiens, UniProt Q16581).
T1 construct: peripheral blood mononuclear cells were isolated from buffy coat (obtained from Australian Red Cross Blood Service, Kelvin Grove); endogenous in cells; host or cells: primary human monocyte-derived macrophages (HMDM) differentiated from CD14+ monocytes of donor buffy coat
T1 sequence (Q16581 1-482): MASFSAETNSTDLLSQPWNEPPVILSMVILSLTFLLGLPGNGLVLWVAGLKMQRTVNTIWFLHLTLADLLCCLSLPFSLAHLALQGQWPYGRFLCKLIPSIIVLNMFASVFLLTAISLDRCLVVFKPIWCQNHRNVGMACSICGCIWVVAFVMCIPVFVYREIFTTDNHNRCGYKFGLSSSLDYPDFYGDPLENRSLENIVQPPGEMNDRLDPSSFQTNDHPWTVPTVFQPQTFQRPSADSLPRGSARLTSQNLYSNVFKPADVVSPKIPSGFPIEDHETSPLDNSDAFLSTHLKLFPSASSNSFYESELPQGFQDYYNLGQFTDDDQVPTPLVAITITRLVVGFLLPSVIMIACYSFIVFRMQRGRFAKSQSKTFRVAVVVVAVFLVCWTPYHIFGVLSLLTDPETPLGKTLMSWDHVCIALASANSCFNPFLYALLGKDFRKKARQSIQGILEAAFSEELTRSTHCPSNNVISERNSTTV
The assay is described as follows: Competitive binding with [^125I]-C3a in HMDM. Particulars: for pIC50 ± SEM / IC50: HMDM. A digest of the protocol: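 IC50 values are geometric means, with −log IC50 computed per experiment and given as arithmetic mean ± SE. Cells were CD14+ monocytes from buffy-coat PBMC, differentiated to macrophages and used on day 7. Unbound label was removed by GF/B filtration with 3 cold washes in 50 mM Tris-HCl pH 7.4.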

For assay [1], the target named is T2, C3aR (Homo sapiens, UniProt Q16581).
T2 construct: peripheral blood mononuclear cells were isolated from buffy coat (obtained from Australian Red Cross Blood Service, Kelvin Grove); endogenous in cells; host or cells: primary human monocyte-derived macrophages (HMDM) differentiated from CD14+ monocytes of donor buffy coat
T2 sequence (Q16581 1-482): T1 sequence (Q16581 1-482)
The assay is described as follows: Calcium mobilization assay in HMDM (agonist/antagonist activity). It is filed as cell-based. In a few lines:
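Human monocyte-derived macrophages, 5×10^4 cells/well, loaded 1 h at 37 °C with 4 μM Fluo-3 in HBSS/HEPES/probenecid buffer, pH 7.4. Agonist mode: calcium release read 300 s; antagonist mode: 900 s compound preincubation then agonist, read 300 s (ex 485/em 520 nm); compared with hC3a.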

Assay [2] addresses T2, C3aR. Kind of assay: Desensitization experiments (Ca^2+ efflux after hC3a desensitization). Format: cell-based. Particulars: hC3a 3 μM first; second addition of 1 μM compound; HMDM. The method, then: Desensitization experiments were used to measure the selectivity of various ligands for C3aR, since this can help to clarify whether the non-peptidic ligands bind selectively to C3aR over other GPCRs that signal through intracellular calcium release.
The hC3a (3 μM) was administered to human monocyte derived macrophage cells, which produces an efflux of intracellular Ca^2+ that dissipates after 4-5 mins (FIGS. 4A and 4B). A second addition of 3 μM hC3a after 5 mins has no effect, due to desensitization of the receptor through either receptor (C3a receptor) phosphorylation or receptor internalization from the cell surface.

[3] abbreviates: Table 6, competitive binding with [^125I]-C3a.
[4] abbreviates: Table 6, competitive binding with [^125I]-C3a, read-out: IC50 (converted).
Where [5] appears, read: Table 9, Ca^2+ mobilization, HMDM.
Where [6] appears, read: Table 9, Ca^2+ mobilization, HMDM, read-out: EC50.
The mark [7] stands for this setting: Table 9, Ca^2+ mobilization, HMDM, read-out: pEC50 ± SEM (converted).
Setting [8] is: quoted in text of Example 98, read-out: EC50.
The mark [9] stands for this setting: Table 6, competitive binding with [^125I]-C3a, read-out: pIC50 ± SEM (converted).
Where [10] appears, read: Table 11, [^125I]-C3a, read-out: Receptor Binding Affinity IC50.
The mark [11] stands for this setting: Table 11, [^125I]-C3a, read-out: Receptor Binding Affinity pIC50 ± SE (converted).
[12] abbreviates: Table 11, Ca^2+ mobilisation, HMDM, read-out: Apparent Antagonist Activity EC50.

Regarding `CC[C@H](C)[C@H](NC(=O)c1ccccc1Oc1ccccc1)c1nc(C(=O)N[C@@H](CCCNC(=N)N)C(=O)O)co1` [Compound 18, 2-phenoxy benzoic acid-isoleucine-oxazole-arginine-OH], the “pIC50 ± SEM” value on C3a receptor (C3aR) (setting [3]) worked out at 7.26 ± 0.09. Moreover, the IC50 at C3a receptor (C3aR) (setting [4]) is 55 nM. For the same molecule, the “pEC50 ± SEM” value at C3aR [1] (setting [5]) was determined as 7.26 ± 0.08. Besides, the EC50 on C3aR [1] (setting [6]) worked out at 54 nM. The “Ca^2+ efflux on addition after first desensitization with hC3a (selectivity for C3aR over other GPCRs)” value at C3aR [2] is reported as “caused a second efflux of intracellular Ca^2+”.

For the molecule `CC[C@H](C)[C@H](NC(=O)c1nccc2ccccc12)c1nc(C(=O)N[C@@H](CCCNC(=N)N)C(=O)O)co1` [Compound 10, Isoquinoline-1-Isoleucine-Oxazole-Arginine-OH], at C3a receptor (C3aR) (setting [4]), the IC50 was 123 nM. The EC50 on C3aR [1] (setting [7]) was 40.7 nM. Besides, on C3aR [2], the “Ca^2+ efflux on addition after first desensitization with hC3a (selectivity for C3aR over other GPCRs)” value was “did not produce calcium efflux”.

For `CC[C@H](C)[C@H](NC(=O)OC(C)(C)C)c1nc(C(=O)N[C@@H](CCCNC(=N)N)C(=O)O)co1` [Compound 2], at C3a receptor (C3aR) (setting [3]), the “pIC50 ± SEM” value is given as 7.53 ± 0.10. Further, the IC50 at C3a receptor (C3aR) (setting [4]) was 30 nM. Further, the “pEC50 ± SEM” value at C3aR [1] (setting [5]) was 7.57 ± 0.11. For the same molecule, the EC50 on C3aR [1] (setting [8]) turned out to be 27 nM. Also, at C3aR [2], the “Ca^2+ efflux on addition after first desensitization with hC3a (selectivity for C3aR over other GPCRs)” value is recorded as “did not produce calcium efflux”.

Turning to `CC[C@H](C)[C@H](NC(=O)OC(C)(C)C)c1nc(C(=O)N[C@@H](CCCNC(=N)N)C(=O)O)c(C)o1` [Compound 25, Boc-isoleucine-5-methyl-oxazole-arginine-OH], the IC50 on C3a receptor (C3aR) (setting [9]) is 13.8 nM; on C3a receptor (C3aR) (setting [10]), 15 nM; at C3a receptor (C3aR) (setting [11]) it was 13.8 nM. Besides, the EC50 at C3aR [1] (setting [6]) was 45 nM; at C3aR [1] (setting [12]), 45 nM; at C3aR [1] (Table 11, Ca^2+ mobilisation, HMDM, read-out: Apparent Antagonist Activity pEC50 ± SE (converted)), 39.8 nM. Moreover, the “Ca^2+ efflux on addition after first desensitization with hC3a (selectivity for C3aR over other GPCRs)” value on C3aR [2] is reported as “caused a second efflux of intracellular Ca^2+”.

In the case of `CC(C)C[C@H](NC(=O)OC(C)(C)C)c1nc(C(=O)NC(CCCNC(=N)N)C(=O)O)co1` (some centres unmarked) [Compound 1, Boc-leucine oxazole-arginine-OH], the IC50 at C3a receptor (C3aR) (setting [4]) is 20 nM; on C3a receptor (C3aR) (setting [9]), 19.5 nM; at C3a receptor (C3aR) (setting [10]), 20 nM; at C3a receptor (C3aR) (setting [11]), 19.5 nM. In addition, the EC50 at C3aR [1] (setting [7]) was 19.1 nM; on C3aR [1] (setting [12]), 19 nM; on C3aR [1] (setting [8]), 19 nM. In addition, at C3aR [2], the “Ca^2+ efflux on addition after first desensitization with hC3a (selectivity for C3aR over other GPCRs)” value was “did not produce calcium efflux”.

For the molecule `CC[C@H](C)[C@H](NC(=O)C(c1ccccc1)c1ccccc1)c1nc(C(=O)N[C@@H](CCCNC(=N)N)C(=O)O)co1` [Compound 7, Diphenyl Acetic Acid Isoleucine Oxazole Arginine], the “pIC50 ± SEM” value on C3a receptor (C3aR) (setting [3]) was 6.86 ± 0.08. Besides, the IC50 on C3a receptor (C3aR) (setting [4]) was 137 nM. Besides, the “pEC50 ± SEM” value on C3aR [1] (setting [5]) amounted to 5.25 ± 0.31. Moreover, the EC50 on C3aR [1] (setting [6]) is 5600 nM.

On to `CC(C)C[C@H](NC(=O)CC(c1ccccc1)c1ccccc1)c1nc(C(=O)N[C@@H](CCCNC(=N)N)C(=O)O)co1` [Compound 19, 3,3-diphenylpropanoic acid-Leucine-Oxazole-Arginine-OH], for which the IC50 at C3a receptor (C3aR) (setting [4]) was 754 nM. Besides, the EC50 on C3aR [1] (setting [6]) amounted to 744 nM.

In the case of `N=C(N)NCCC[C@H](NC(=O)c1nnc(C(c2ccccc2)c2ccccc2)o1)C(=O)O` [Compound 69, 2-Diphenylmethyl-1-oxa-3,4-diazole-5-carboxyl-Arginine-OH], the IC50 was 2580 nM at C3a receptor (C3aR) (Table 8, read-out: Receptor Binding Affinity ^125I IC50) and 24000 nM on C3aR [1] (Table 10, HMDM, read-out: Antagonist Activity Ca^2+ IC50).

In the case of `Cc1[nH]c([C@H](CC(C)C)NC(=O)OC(C)(C)C)nc1C(=O)N[C@@H](CCCNC(=N)N)C(=O)O` [Compound 80, Boc-Leucine-imidazole-Arginine-OH], the IC50 at C3a receptor (C3aR) (setting [4]) was 38 nM. For the same molecule, the EC50 at C3aR [1] (setting [6]) was determined as 120 nM.

For `CC(C)(C)OC(=O)N[C@@H](CC1CCCCC1)c1nc(C(=O)N[C@@H](CCCNC(=N)N)C(=O)O)co1` [Compound 5, Boc-L-Cyclohexylalanine-Oxazole-Arg], the IC50 at C3a receptor (C3aR) (setting [4]) was 82 nM. At C3aR [1] (setting [6]), the EC50 was found to be 135 nM.

Consider `CC(C)C[C@H](NC(=O)OC(C)(C)C)c1nc(C(=O)N[C@@H](CCCNC(=N)N)C(=O)NS(=O)(=O)c2ccccc2)co1` [Compound 92, tert-butyl ((S)-1-(4-(((S)-5-guanidino-1-oxo-1-(phenylsulfonamido)pentan-2-yl)carbamoyl)oxazol-2-yl)-3-methylbutyl)carbamate], for which the IC50 is 7.5 nM on C3a receptor (C3aR) (setting [4]) and 1300 nM on C3aR [1] (Table 13, calcium release from HMDM, read-out: Antagonist Activity IC50).

Regarding `CC(C)C[C@H](NC(=O)OC(C)(C)C)c1nc(C(=O)N[C@@H](CCCNC(=N)N)C(=O)O)c(-c2ccccc2)o1` [Compound 50, Boc-Leucine-5-Phenyl-Oxazole-Arginine], the IC50 at C3a receptor (C3aR) (setting [9]) was 37.2 nM; on C3a receptor (C3aR) (setting [11]), 37.2 nM; on C3aR [1] (Table 11, Ca^2+ mobilisation, HMDM, read-out: Apparent Antagonist Activity IC50) it was 16.5 nM. Further, the “Apparent Antagonist Activity pEC50 ± SE (symbol)” value on C3aR [1] (Table 11) is listed as “* (The compounds show no agonist activity in calcium mobilisation assays up to 100 μM.)”.

Regarding `CC[C@H](C)[C@H](NC(=O)CCC(=O)c1ccc(-c2ccccc2)cc1)c1nc(C(=O)N[C@@H](CCCNC(=N)N)C(=O)O)co1` [Compound 16, 4-(biphenyl-4-yl)-4-oxobutanoic acid-Isoleucine-Oxazole-Arginine-OH], the “pIC50 ± SEM” value at C3a receptor (C3aR) (setting [3]) amounted to 6.81 ± 0.07. The IC50 on C3a receptor (C3aR) (setting [4]) was 155 nM. On C3aR [1] (setting [5]), the “pEC50 ± SEM” value was 8.12 ± 0.21. In addition, the EC50 on C3aR [1] (setting [8]) stood at 8 nM. Besides, the “Ca^2+ efflux on addition after first desensitization with hC3a (selectivity for C3aR over other GPCRs)” value at C3aR [2] is on record as “did not produce calcium efflux”.

For the molecule `COc1ccc(CC(=O)N[C@@H](CC(C)C)c2nc(C(=O)N[C@@H](CCCNC(=N)N)C(=O)O)c(C)o2)cc1` [Compound 39, 4-Methoxy-phenylacetic acid-Leucine-5-Methyl-Oxazole-Arginine], the remaining activity at 20 µM at C3a receptor (C3aR) (1 h, read-out: %[^125I]-C3a binding) was 40%. Further, the Emax at 10 µM on C3aR [1] (read-out: % agonist) came to 26%.
